Source: patent US9353089B2, “Compositions and methods for the treatment of malaria” (Saint Louis University, priority 2013, dated 2016)
pIC50: −log10 of the molar value. Like-named read-outs stand apart in the source and are kept apart here.

Legend:
[1] = test system: Plasmodium falciparum 3D7 (CQ-sensitive); test: In vitro antimalarial assay (malaria SYBR Green I-based fluorescence, MSF), 3D7; type: cell-based; conditions: for inhibition of growth at 1 µM: 3D7, 72 h, read-out: 3D7 % inh @ 1 μM
In short: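 Asynchronous P. falciparum 3D7 cultures (0.5% parasitemia, 2% hematocrit) were exposed to serially diluted compounds, in quadruplicate. Growth was then quantified by SYBR Green I fluorescence after adding lysis buffer containing 0.2 μL/mL dye.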

[2] = biological target: Plasmepsin-2 (PM-2; Plm II) (Plasmodium falciparum (isolate HB3), UniProt P46925); test: Plasmepsin-2 enzyme inhibition assay; type: biochemical
Plasmepsin-2 (PM-2; Plm II), sequence (P46925 125-453 limits assumed): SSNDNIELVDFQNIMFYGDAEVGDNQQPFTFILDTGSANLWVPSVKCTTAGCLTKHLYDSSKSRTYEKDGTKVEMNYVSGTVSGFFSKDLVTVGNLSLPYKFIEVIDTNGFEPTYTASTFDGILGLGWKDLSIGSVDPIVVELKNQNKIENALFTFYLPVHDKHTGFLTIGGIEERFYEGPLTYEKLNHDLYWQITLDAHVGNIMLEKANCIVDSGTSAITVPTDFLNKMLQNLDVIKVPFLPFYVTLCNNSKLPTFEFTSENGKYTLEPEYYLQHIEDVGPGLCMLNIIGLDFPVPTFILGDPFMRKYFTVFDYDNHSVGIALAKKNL
Procedure: (§1) Plasmepsin-2 (PM-2; Plm II) and Plasmepsin (PM-4; Plm IV) expression and purification was performed following the published protocols (Istvan E S and Goldberg D E, 2005). The final purified protein was activated by diluting the protein to 0.3 mg/mL in activating buffer (0.1 M citrate pH 4.5, 0.1% Tween-20, 50 mM dithiothreitol) and incubated at room temperature for 40 min, then the activated enzyme was diluted in assay buffer (50 mM sodium acetate pH 4.7, 0.01% Tween-20). The enzymatic inhibition reaction was performed in 384 well plates with a total volume of 20 μl. 10 μl of diluted PM-2 or PM-4 enzyme was added to the 384-well plate except blank wells (blank wells add 10 μL of assay buffer) and 20 nL of serials of diluted 1000× compounds were added to the wells with 520 Echo® Liquid Handling System (Labcyte Inc.). 10 μL PM-2 peptide substrate (AnaSpec, Cat#, 62050) with assay buffer was then added to final concentration of 20 μM to start the reaction. After incubation the reaction at room temperature for 60 min, the fluorescence intensity at Ex/Em=360 nm/535 nm was measured using EnVision multilabel plate reader (Perkin-Elmer). The IC50 values were obtained using Graph Pad Prism 4 and are reported in Tables 8 and 9 below as PM-2 IC50 values.

recombinant human BACE1 [3] = biological target: recombinant human BACE1 (Homo sapiens, UniProt P56817); test: β-Secretase (BACE1) enzyme inhibition FRET assay; type: biochemical
recombinant human BACE1 (Homo sapiens, UniProt P56817), sequence (P56817 46-501 limits assumed): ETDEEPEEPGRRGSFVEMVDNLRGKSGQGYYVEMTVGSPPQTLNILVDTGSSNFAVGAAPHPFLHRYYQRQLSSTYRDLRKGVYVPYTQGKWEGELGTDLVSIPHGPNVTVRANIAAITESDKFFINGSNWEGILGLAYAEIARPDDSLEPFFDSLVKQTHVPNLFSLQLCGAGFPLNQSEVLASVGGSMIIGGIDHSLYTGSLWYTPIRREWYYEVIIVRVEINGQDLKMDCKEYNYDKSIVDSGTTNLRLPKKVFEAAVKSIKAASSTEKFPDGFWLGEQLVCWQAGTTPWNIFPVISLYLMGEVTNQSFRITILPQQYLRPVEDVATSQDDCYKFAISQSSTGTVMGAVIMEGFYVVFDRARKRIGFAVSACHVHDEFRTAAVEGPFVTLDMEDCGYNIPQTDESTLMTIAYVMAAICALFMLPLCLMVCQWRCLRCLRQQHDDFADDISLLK
Procedure: (§2) The enzymatic inhibition activity assays were determined using the fluorescence resonance energy transfer (FRET) assay. The assays were performed in a 384-well plate format. […] CatD and CatE were activated by incubation in assay buffer (0.1 M NaOAc, 0.2 M NaCl, pH 3.5) at room temperature for 30 min. Subsequently, the rhBACE-1 substrate (R&D Systems, catalog# ES004), the Cathepsin D and Cathepsin E substrate (R&D Systems, Catalog # ES001) were added accordingly to final concentration 20 μM to initiate the reaction. After 60 min incubation at room temperature, the time-resolved fluorescence at Ex/Em=360 nm/460 nm was measured on an EnVision multilabel plate reader (Perkin-Elmer). The analytical software, GraphPad Prism 5.0 (GraphPad Software, Inc., USA) was used to generate IC50 values via non-linear regression analysis, which are reported in Tables 8-13 below as BACE1 IC50 values.

recombinant human BACE1 [4] = test: β-Secretase (BACE1) enzyme inhibition FRET assay; type: biochemical; conditions: ratio of BACE1 IC50 to PM-2 IC50
Procedure: as §2

[5] = biological target: Plasmepsin (PM-4; Plm IV) (Plasmodium falciparum (isolate 3D7), UniProt Q8IM16); test: Plasmepsin-4 enzyme inhibition assay; type: biochemical; conditions: Table 8
Plasmepsin (PM-4; Plm IV), sequence (Q8IM16 122-449 limits assumed): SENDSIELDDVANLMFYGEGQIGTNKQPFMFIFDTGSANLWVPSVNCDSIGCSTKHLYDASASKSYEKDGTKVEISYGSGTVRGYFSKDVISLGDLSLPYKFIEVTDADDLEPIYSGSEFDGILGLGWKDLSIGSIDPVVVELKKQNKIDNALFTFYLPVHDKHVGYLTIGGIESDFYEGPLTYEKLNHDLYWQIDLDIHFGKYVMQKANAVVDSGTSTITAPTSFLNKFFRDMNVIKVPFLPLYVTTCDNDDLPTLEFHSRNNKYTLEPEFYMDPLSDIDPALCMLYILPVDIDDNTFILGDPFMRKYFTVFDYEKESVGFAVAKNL
Procedure: as §1

[6] = biological target: recombinant human Cathepsin D (Homo sapiens (Human), UniProt P07339); test: Cathepsin D enzyme inhibition FRET assay; type: biochemical; conditions: Table 8; read-out: CatD IC50
recombinant human Cathepsin D, sequence (P07339 65-412): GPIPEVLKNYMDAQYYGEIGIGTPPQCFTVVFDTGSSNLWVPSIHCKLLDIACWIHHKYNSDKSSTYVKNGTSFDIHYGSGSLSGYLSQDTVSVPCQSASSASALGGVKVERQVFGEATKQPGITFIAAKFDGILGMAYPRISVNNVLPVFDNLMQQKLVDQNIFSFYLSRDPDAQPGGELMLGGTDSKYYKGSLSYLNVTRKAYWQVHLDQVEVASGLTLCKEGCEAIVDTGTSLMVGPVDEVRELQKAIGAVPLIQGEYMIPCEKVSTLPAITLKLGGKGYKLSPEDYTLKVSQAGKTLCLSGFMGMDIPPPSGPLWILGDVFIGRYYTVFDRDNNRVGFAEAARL
Procedure: (§3) The enzymatic inhibition activity assays were determined using the fluorescence resonance energy transfer (FRET) assay. The assays were performed in a 384-well plate format. […] The concentration of Cathepsin D was 20 ng/μL, and 1 ng/μL of Cathepsin E was used. CatD and CatE were activated by incubation in assay buffer (0.1 M NaOAc, 0.2 M NaCl, pH 3.5) at room temperature for 30 min. Subsequently, the rhBACE-1 substrate (R&D Systems, catalog# ES004), the Cathepsin D and Cathepsin E substrate (R&D Systems, Catalog # ES001) were added accordingly to final concentration 20 μM to initiate the reaction. After 60 min incubation at room temperature, the time-resolved fluorescence at Ex/Em=360 nm/460 nm was measured on an EnVision multilabel plate reader (Perkin-Elmer). The analytical software, GraphPad Prism 5.0 (GraphPad Software, Inc., USA) was used to generate IC50 values via non-linear regression analysis, which are reported in Tables 8-13 below as BACE1 IC50 values.

[7] = biological target: recombinant human Cathepsin E (Homo sapiens (Human), UniProt P14091); test: Cathepsin E enzyme inhibition FRET assay; type: biochemical; conditions: Table 8; read-out: CatE IC50
recombinant human Cathepsin E, sequence (P14091 54-396): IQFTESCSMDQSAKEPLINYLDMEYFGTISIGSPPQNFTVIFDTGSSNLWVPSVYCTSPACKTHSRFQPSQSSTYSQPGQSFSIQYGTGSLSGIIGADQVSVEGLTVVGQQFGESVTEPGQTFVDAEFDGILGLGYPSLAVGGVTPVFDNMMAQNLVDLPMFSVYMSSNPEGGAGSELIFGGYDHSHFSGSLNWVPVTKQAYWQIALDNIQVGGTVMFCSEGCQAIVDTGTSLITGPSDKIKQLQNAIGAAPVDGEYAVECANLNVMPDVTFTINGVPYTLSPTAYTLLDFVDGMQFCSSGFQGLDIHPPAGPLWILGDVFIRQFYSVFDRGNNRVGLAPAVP
Procedure: as §3

[8] = 3D7, read-out: 3D7 IC50 (μM), Table 13

Row | Compound | IC50 [1, 8] [µM] | pIC50 ([2]; Table 13, read-out: PM-2 IC50) | pIC50 (recombinant human BACE1 [3]; Table 13, read-out: BACE1 IC50) | further results
1 | COc1ccc(C2(C3CCCC3)NC(=N)N(C3CCOCC3)C2=O)cc1 (stereo not shown) [Example 335, 5-cyclopentyl-2-imino-5-(4-methoxy-phenyl)-3-(oxan-4-yl)imidazolidin-4-one] | 0.377 | 7.04 | < 5.00 | –
2 | COc1ccc(C2(c3ccc(OC)cc3)NC(=N)N(C3CCN(C(=O)CCN(C)C)CC3)C2=O)cc1 [Example 322, 3-{1-[3-(dimethylamino)propanoyl]piperidin-4-yl}-2-imino-5,5-bis(4-methoxyphenyl)imidazolidin-4-one] | – | 7.69 | < 5.00 | inhibition of growth at 1 µM [1]: 34%
3 | COc1ccc(C2(C3CC3)NC(=N)N(C3CCOCC3)C2=O)cc1 (stereo not shown) [Example 325, 5-cyclopropyl-2-imino-5-(4-methoxyphenyl)-3-(oxan-4-yl)imidazolidin-4-one] | 0.752 | 6.37 | < 5.00 | –
4 | COc1cccc(-c2cccc(C3(C4CC4)NC(=N)N(C4CCCCC4)C3=O)c2)c1 (stereo not shown) [Example 328, 3-cyclohexyl-5-cyclopropyl-2-imino-5-[3-(3-methoxyphenyl)-phenyl]imidazolidin-4-one] | 0.746 | 6.98 | ~5.17 | pIC50 ([2]; Table 12, read-out: PM-2 IC50): 6.98; pIC50 (recombinant human BACE1 [3]; Table 12, read-out: BACE1 IC50): ~5.15; BACE1/PM2 Ratio (recombinant human BACE1 [4]): 67
5 | N#Cc1cncc(-c2cccc(C3(C4CC4)NC(=N)N(C4CCCCC4)C3=O)c2)c1 (stereo not shown) [Example 513, 5-(3-(1-cyclohexyl-4-cyclopropyl-2-imino-5-oxoimidazolidin-4-yl)phenyl)nicotinonitrile] | 0.4 | 6.66 | 5.18 | –
6 | COc1ccc(C2(c3ccccn3)NC(=N)N(C3CCOCC3)C2=O)cc1 (stereo not shown) [Example 332, 2-imino-5-(4-methoxyphenyl)-3-(oxan-4-yl)-5-(pyridin-2-yl)-imidazolidin-4-one] | – | 6.67 | < 5.00 | inhibition of growth at 1 µM [1]: 25%
7 | COc1ccc(C2(c3ccc(OC)cc3)NC(=O)N(C3CCCCC3)C2=O)cc1 | – | – | – | pIC50 ([1]; 3D7, Table 8, read-out: Pf 3D7 IC50): < 5.00; pIC50 ([2]; Table 8, read-out: PM-II IC50): < 5.00; pIC50 [5]: < 5.00
8 | COc1ccc(C2(C3CCCCC3)NC(=N)N(C3CCCCC3)C2=O)cc1 (stereo not shown) [Example 447, 3,5-dicyclohexyl-2-imino-5-(4-methoxyphenyl)imidazolidin-4-one] | 0.494 | 7.17 | 4.76 | –
9 | COc1ccc(C2(c3cccc(-c4cccnc4)c3)NC(=N)N(C3CCCCC3)C2=O)cc1 (stereo not shown) [Example 171, 3-cyclohexyl-2-imino-5-(4-methoxyphenyl)-5-[3-(pyridin-3-yl)phenyl]-imidazolidin-4-one] | 0.595 | 8.16 | ~5.15 | IC50 ([1]; 3D7, read-out: Pf 3D7 IC50 (μM), Table 11): 0.595 µM; pIC50 ([1]; 3D7, read-out: Pf 3D7 IC50, Table 8): 6.23; pIC50 ([2]; Table 8, read-out: PM-II IC50): 8.15; pIC50 [5]: 8.15; pIC50 (recombinant human BACE1 [3]; Table 8, read-out: BACE IC50): ~5.15; pIC50 [6]: ~4.83; pIC50 [7]: 5.40
10 | N=C1NC(c2cccc(-c3cccnc3)c2)(C2CC2)C(=O)N1C1CCOCC1 (stereo not shown) [Example 487, 5-cyclopropyl-2-imino-5-(3-(pyridin-3-yl)phenyl)-3-(tetrahydro-2H-pyran-4-yl)imidazolidin-4-one] | 0.248 | 6.29 | 5.06 | –
